These results are taken from patent US10092570B2 (Incyte Corporation, priority 2011, dated 2018).

PI3Kδ (p110δ/p85α), sequence (O00329 whole entry): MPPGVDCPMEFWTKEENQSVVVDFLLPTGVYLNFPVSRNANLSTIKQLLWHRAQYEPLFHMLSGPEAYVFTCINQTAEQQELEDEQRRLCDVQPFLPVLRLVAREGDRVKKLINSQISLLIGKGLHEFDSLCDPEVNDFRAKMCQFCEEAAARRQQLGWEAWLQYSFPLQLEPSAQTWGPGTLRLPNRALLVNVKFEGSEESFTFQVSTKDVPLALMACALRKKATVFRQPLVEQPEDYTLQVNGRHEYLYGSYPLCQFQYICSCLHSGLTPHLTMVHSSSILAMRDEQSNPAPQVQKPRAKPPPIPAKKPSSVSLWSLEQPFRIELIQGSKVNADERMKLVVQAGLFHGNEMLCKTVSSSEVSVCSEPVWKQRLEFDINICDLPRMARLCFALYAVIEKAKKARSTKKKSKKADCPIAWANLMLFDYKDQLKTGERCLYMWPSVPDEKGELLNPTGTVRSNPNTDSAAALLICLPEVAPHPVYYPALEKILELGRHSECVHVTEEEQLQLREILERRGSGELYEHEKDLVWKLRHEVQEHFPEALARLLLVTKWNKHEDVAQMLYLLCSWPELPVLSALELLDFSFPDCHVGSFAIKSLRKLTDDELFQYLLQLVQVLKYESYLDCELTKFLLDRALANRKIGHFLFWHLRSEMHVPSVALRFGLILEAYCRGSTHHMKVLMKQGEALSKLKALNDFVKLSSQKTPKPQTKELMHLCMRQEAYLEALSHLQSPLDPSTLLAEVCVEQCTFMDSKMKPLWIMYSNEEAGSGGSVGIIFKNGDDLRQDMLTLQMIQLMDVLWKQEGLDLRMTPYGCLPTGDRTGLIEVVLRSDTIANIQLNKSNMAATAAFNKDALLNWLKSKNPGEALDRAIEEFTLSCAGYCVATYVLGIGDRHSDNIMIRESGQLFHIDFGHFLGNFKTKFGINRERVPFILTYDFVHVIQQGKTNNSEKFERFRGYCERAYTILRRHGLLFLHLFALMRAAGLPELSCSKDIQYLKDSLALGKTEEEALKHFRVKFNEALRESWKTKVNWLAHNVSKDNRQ
PI3Kδ (p110δ/p85α), sequence (P27986 whole entry partner): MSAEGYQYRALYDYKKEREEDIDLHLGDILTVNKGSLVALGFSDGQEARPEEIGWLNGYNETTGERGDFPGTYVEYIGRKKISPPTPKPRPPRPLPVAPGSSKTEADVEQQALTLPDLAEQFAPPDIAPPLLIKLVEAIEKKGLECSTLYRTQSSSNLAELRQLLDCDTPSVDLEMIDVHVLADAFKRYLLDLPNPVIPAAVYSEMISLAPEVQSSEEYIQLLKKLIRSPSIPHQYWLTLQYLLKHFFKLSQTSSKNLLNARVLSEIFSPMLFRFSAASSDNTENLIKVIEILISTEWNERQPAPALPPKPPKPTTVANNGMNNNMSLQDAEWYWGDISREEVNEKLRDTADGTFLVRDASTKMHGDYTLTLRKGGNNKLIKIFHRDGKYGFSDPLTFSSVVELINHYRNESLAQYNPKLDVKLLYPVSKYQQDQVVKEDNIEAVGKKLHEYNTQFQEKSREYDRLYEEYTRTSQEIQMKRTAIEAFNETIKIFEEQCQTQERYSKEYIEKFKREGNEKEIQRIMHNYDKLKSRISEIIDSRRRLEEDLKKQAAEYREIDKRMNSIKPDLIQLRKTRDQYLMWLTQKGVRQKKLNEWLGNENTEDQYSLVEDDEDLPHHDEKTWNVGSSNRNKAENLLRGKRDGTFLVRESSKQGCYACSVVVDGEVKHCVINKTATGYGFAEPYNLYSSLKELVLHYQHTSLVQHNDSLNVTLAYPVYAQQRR

The first experiment deals with PI3Kδ (p110δ/p85α) (Homo sapiens (Human), UniProt O00329). Nature of the experiment: Example A3: PI3Kδ scintillation proximity assay. The format is biochemical. To be noted: assay not specified. The protocol:
[γ-^33P]ATP (10 mCi/mL) was purchased from Perkin-Elmer (Waltham, Mass.). […] PI3Kδ (p110δ/p85α) was purchased from Millipore (Bedford, Mass.). ATP, MgCl2, DTT, EDTA, MOPS and CHAPS were purchased from Sigma-Aldrich (St. Louis, Mo.). Wheat Germ Agglutinin (WGA) YSi SPA Scintillation Beads was purchased from GE healthcare life sciences (Piscataway, N.J.).
The kinase reaction was conducted in polystyrene 384-well matrix white plate from Thermo Fisher Scientific in a final volume of 25 μL. Inhibitors were first diluted serially in DMSO and added to the plate wells before the addition of other reaction components. The final concentration of DMSO in the assay was 0.5%. The PI3K assays were carried out at room temperature in 20 mM MOPS, pH 6.7, 10 mM MgCl2, 5 mM DTT and CHAPS 0.03%. Reactions were initiated by the addition of ATP, the final reaction mixture consisted of 20 μM PIP2, 20 μM ATP, 0.2 μCi [γ-^33P] ATP, 4 nM PI3Kδ. […] 25 mM EDTA, 400 μM ATP. The final concentration of SPA beads was 1.0 mg/mL. After the plate sealing, plates were shaken overnight at room temperature and centrifuged at 1800 rpm for 10 minutes, the radioactivity of the product was determined by scintillation counting on Topcount (Perkin-Elmer). IC50 determination was performed by fitting the curve of percent control activity versus the log of the inhibitor concentration using the GraphPad Prism 3.0 software.
(In general: Scintillation proximity formats need no separation of bound from free tracer.)
Take `CCOc1c(C(C)n2nc(C)c3c(N)ncnc32)cc(Cl)c(F)c1C1CNC(=O)O1` (centres unmarked) [Example 357, 5-{3-[1-(4-amino-3-methyl-1H-pyrazolo[3,4-d]pyrimidin-1-yl)ethyl]-5-chloro-2-ethoxy-6-fluorophenyl}-1,3-oxazolidin-2-one]: the “relative activity among the four separated diastereomers (peaks 1-4)” value is “most active enantiomer”.

The same experiment, now with this note: scintillation proximity assay, 20 μM ATP, 4 nM PI3Kδ; read-out: PI3Kδ SPA IC50.
What is called IC50 is the concentration that inhibits the measured activity by half. Regarding `COc1c(C(C)n2nc(C)c3c(N)ncnc32)cc(Cl)c(C#N)c1C1CN(C(C)CO)C1` (single isomer, unassigned) [Example 273, 4-[1-(4-amino-3-methyl-1H-pyrazolo[3,4-d]pyrimidin-1-yl)ethyl]-6-chloro-2-[1-(2-hydroxy-1-methylethyl)azetidin-3-yl]-3-methoxybenzonitrile], the IC50 is < 0.01 µM.
For the compound `COc1c(C(C)n2nc(C)c3c(N)ncnc32)cc(Cl)c(C)c1C1CN(C(C)C#N)C1` (centres unmarked) [Example 106, 2-(3-{3-[1-(4-Amino-3-methyl-1H-pyrazolo[3,4-d]pyrimidin-1-yl)ethyl]-5-chloro-2-methoxy-6-methylphenyl}azetidin-1-yl)propanenitrile], the IC50 is < 0.01 µM.
Take `CCNC(=O)c1c(C)c(Cl)cc(C(C)n2nc(-c3cc(O)cc(F)c3)c3c(N)ncnc32)c1OCC` (racemic) [Example 88, 3-{1-[4-Amino-3-(3-fluoro-5-hydroxyphenyl)-1H-pyrazolo[3,4-d]pyrimidin-1-yl]ethyl}-5-chloro-2-ethoxy-N-ethyl-6-methylbenzamide]: the half-inhibitory concentration (IC50) was < 0.01 µM.
Consider `COc1c(C(C)n2nc(C)c3c(N)ncnc32)cc(Cl)c(C)c1-c1cnn(C2CCN(C(C)=O)CC2)c1` (single isomer, unassigned) [Example 182, 1-(1-{3-[1-(1-Acetylpiperidin-4-yl)-1H-pyrazol-4-yl]-5-chloro-2-methoxy-4-methylphenyl}ethyl)-3-methyl-1H-pyrazolo[3,4-d]pyrimidin-4-amine], for which the IC50 is < 0.01 µM.
For `CCOc1c(C(C)n2nc(C)c3c(N)ncnc32)cc(Cl)c(C#N)c1-c1cncc(S(C)(=O)=O)c1` (racemic) [Example 43, 4-[1-(4-amino-3-methyl-1H-pyrazolo[3,4-d]pyrimidin-1-yl)ethyl]-6-chloro-3-ethoxy-2-[5-(methylsulfonyl)pyridin-3-yl]benzonitrile], the IC50 was < 0.01 µM.
The same measure, in the same setting: as for `CCOc1c(C(C)n2nc(C)c3c(N)ncnc32)cc(Cl)c(C#N)c1N1CCCC1` (racemic) [Example 318, 4-[1-(4-amino-3-methyl-1H-pyrazolo[3,4-d]pyrimidin-1-yl)ethyl]-6-chloro-3-ethoxy-2-pyrrolidin-1-ylbenzonitrile], the figure is < 0.01 µM.
On the same count and under the same terms, as for `CCNC(=O)c1c(C)c(Cl)cc(C(C)n2nc(-c3cnc4[nH]ccc4c3)c3c(N)ncnc32)c1OCC` (racemic) [Example 91, 3-{1-[4-Amino-3-(1H-pyrrolo[2,3-b]pyridin-5-yl)-1H-pyrazolo[3,4-d]pyrimidin-1-yl]ethyl}-5-chloro-2-ethoxy-N-ethyl-6-methylbenzamide], the figure is < 0.01 µM.
Consider `CNC(=O)N1CC(c2c(C#N)c(Cl)cc(C(C)n3nc(C)c4c(N)ncnc43)c2OC)C1` (single isomer, unassigned) [Example 294, 3-{3-[1-(4-Amino-3-methyl-1H-pyrazolo[3,4-d]pyrimidin-1-yl)ethyl]-5-chloro-6-cyano-2-methoxyphenyl}-N-methylazetidine-1-carboxamide], for which the IC50 was < 0.01 µM.
The same measure, in the same setting: as for `COC(=O)N1CC(c2c(C#N)c(Cl)cc(C(C)n3nc(C)c4c(N)ncnc43)c2OC)C1` (single isomer, unassigned) [Example 289, Methyl 3-{3-[1-(4-amino-3-methyl-1H-pyrazolo[3,4-d]pyrimidin-1-yl)ethyl]-5-chloro-6-cyano-2-methoxyphenyl}azetidine-1-carboxylate], the figure is < 0.01 µM; as for `CCOc1c(C(C)n2nc(C(F)F)c3c(N)ncnc32)cc(Cl)c(F)c1C1CN(C[C@@H](C)O)C1` (stereo partly drawn) [Example 155, (2R)-1-[3-(3-{1-[4-Amino-3-(difluoromethyl)-1H-pyrazolo[3,4-d]pyrimidin-1-yl]ethyl}-5-chloro-2-ethoxy-6-fluorophenyl)azetidin-1-yl]propan-2-ol], < 0.01 µM.
The same measure, in the same setting: as for `CCNC(=O)c1c(C)c(Cl)cc(C(C)n2nc(-c3ccc4[nH]ccc4c3)c3c(N)ncnc32)c1OCC` (racemic) [Example 93, 3-{1-[4-Amino-3-(1H-indol-5-yl)-1H-pyrazolo[3,4-d]pyrimidin-1-yl]ethyl}-5-chloro-2-ethoxy-N-ethyl-6-methylbenzamide], the figure is < 0.01 µM.
Still for that read-out and setting: the value for `CCOc1c(C(C)n2cc(C)c3c(N)ncnc32)cc(Cl)c(C#N)c1C1CN(CCO)C1` (centres unmarked) [Example 308, 4-[1-(4-Amino-5-methyl-7H-pyrrolo[2,3-d]pyrimidin-7-yl)ethyl]-6-chloro-3-ethoxy-2-[1-(2-hydroxyethyl)azetidin-3-yl]benzonitrile] was < 0.01 µM; that for `CCOc1c(C(C)n2nc(C)c3c(N)ncnc32)cc(Cl)c(C#N)c1-c1ccc(-c2cnn(C)n2)nc1` (racemic) [Example 337, 4-[1-(4-amino-3-methyl-1H-pyrazolo[3,4-d]pyrimidin-1-yl)ethyl]-6-chloro-3-ethoxy-2-[6-(2-methyl-2H-1,2,3-triazol-4-yl)pyridin-3-yl]benzonitrile] was < 0.01 µM; that for `CCNC(=O)c1c(C)c(Cl)cc(C(C)n2nc(-c3cn[nH]c3)c3c(N)ncnc32)c1OCC` (racemic) [Example 87, 3-{1-[4-Amino-3-(1H-pyrazol-4-yl)-1H-pyrazolo[3,4-d]pyrimidin-1-yl]ethyl}-5-chloro-2-ethoxy-N-ethyl-6-methylbenzamide] was < 0.01 µM.
With `COc1c(C(C)n2nc(C)c3c(N)ncnc32)cc(Cl)c(C#N)c1C1CN(S(=O)(=O)C(C)C)C1` (single isomer, unassigned) [Example 287, 4-[1-(4-Amino-3-methyl-1H-pyrazolo[3,4-d]pyrimidin-1-yl)ethyl]-6-chloro-2-[1-(isopropylsulfonyl)azetidin-3-yl]-3-methoxybenzonitrile], the 50% inhibitory concentration (IC50) was < 0.01 µM.
In the case of `COc1c(C(C)n2nc(C)c3c(N)ncnc32)cc(Cl)c(C)c1C1CN(C2COC2)C1` (racemic) [Example 63, 1-{1-[5-chloro-2-methoxy-4-methyl-3-(1-oxetan-3-ylazetidin-3-yl)phenyl]ethyl}-3-methyl-1H-pyrazolo[3,4-d]pyrimidin-4-amine], the IC50 is < 0.01 µM.
On the same count and under the same terms, the value for `CCOc1c(C(C)n2nc(C)c3c(N)ncnc32)cc(Cl)c(C)c1C1CN(C(=O)[C@@H](C)O)C1` (stereo partly drawn) [Example 100, (2R)-1-(3-{3-[1-(4-Amino-3-methyl-1H-pyrazolo[3,4-d]pyrimidin-1-yl)ethyl]-5-chloro-2-ethoxy-6-methylphenyl}azetidin-1-yl)-1-oxopropan-2-ol] was < 0.01 µM; that for `CCOc1c(C(C)n2ccc(=O)c3c(N)ncnc32)cc(Cl)c(C#N)c1-c1ccc(C(=O)N(C)C)nc1` (racemic) [Example 45, 5-{3-[1-(4-amino-5-oxopyrido[2,3-d]pyrimidin-8(5H)-yl)ethyl]-5-chloro-6-cyano-2-ethoxyphenyl}-N,N-dimethylpyridine-2-carboxamide] was < 0.01 µM.
Consider `CCOc1c(C(C)n2nc(C)c3c(N)ncnc32)cc(Cl)c(F)c1C1CN(CC(F)(F)F)C1` (racemic) [Example 141, 1-(1-{5-Chloro-2-ethoxy-4-fluoro-3-[1-(2,2,2-trifluoroethyl)azetidin-3-yl]phenyl}ethyl)-3-methyl-1H-pyrazolo[3,4-d]pyrimidin-4-amine], for which the IC50 was < 0.01 µM.
